Patent US20140112992A1, “PROCESS FOR FEBUXOSTAT” (HETERO RESEARCH FOUNDATION, priority 2011, published 2014)

Legend:
[1] = Particle size distribution (D50) by laser diffraction, Sympatec Helos; assay type: physicochemical
From the text: The term “Particle Size Distribution (P.S.D.)” means the cumulative volume size distribution of equivalent spherical diameters as determined by laser diffraction at 1 bar dispersive pressure in Sympatec Helos equipment. “Mean particle size distribution, i.e., D50” correspondingly, means the median of said particle size distribution.

[2] = tested on: levels of uric acid; details: compared to allopurinol; cited from earlier work

D50 (mean particle size distribution) ([1]; after grinding for 5 to 10 minutes) [μm]	D50 (mean particle size distribution) ([1]; before grinding, in µm (unit assumed))	Compound	amount of initial gout flares or surface area of gout tophi [2]	individuals with decreased levels of uric acid [2]
2.15	322.46	Cc1nc(-c2ccc(OCC(C)C)c(C#N)c2)sc1C(=O)O [Febuxostat crystalline Form H1, 2-[3-cyano-4-(2-methylpropoxy)phenyl]-4-methyl-5-thiazolecarboxylic acid]	–	–
–	–	Cc1nc(-c2ccc(OCC(C)C)c(C#N)c2)sc1C(=O)O [febuxostat, 2-[3-cyano-4-(2-methylpropoxy)phenyl]-4-methyl-5-thiazolecarboxylic acid]	no difference	more individuals treated with febuxostat had decreased levels of uric acid
